# Peptide text beside a SMILES is read from it.
# Experiments:
# [1] = biological target: T1, Dipeptidyl peptidase 4 (Sus scrofa, UniProt P22411); test: Inhibition of porcine kidney DPP4
# [2] = biological target: T2, Dipeptidyl peptidase 4 (Homo sapiens, UniProt P27487); test: Inhibition of DPP4 (unknown origin) using Gly-Pro-AMC as substrate preincubated for 4 secs followed by substrate addition and measured after 30 mins by […] assay
# Target sequence in this assay (P27487 whole entry): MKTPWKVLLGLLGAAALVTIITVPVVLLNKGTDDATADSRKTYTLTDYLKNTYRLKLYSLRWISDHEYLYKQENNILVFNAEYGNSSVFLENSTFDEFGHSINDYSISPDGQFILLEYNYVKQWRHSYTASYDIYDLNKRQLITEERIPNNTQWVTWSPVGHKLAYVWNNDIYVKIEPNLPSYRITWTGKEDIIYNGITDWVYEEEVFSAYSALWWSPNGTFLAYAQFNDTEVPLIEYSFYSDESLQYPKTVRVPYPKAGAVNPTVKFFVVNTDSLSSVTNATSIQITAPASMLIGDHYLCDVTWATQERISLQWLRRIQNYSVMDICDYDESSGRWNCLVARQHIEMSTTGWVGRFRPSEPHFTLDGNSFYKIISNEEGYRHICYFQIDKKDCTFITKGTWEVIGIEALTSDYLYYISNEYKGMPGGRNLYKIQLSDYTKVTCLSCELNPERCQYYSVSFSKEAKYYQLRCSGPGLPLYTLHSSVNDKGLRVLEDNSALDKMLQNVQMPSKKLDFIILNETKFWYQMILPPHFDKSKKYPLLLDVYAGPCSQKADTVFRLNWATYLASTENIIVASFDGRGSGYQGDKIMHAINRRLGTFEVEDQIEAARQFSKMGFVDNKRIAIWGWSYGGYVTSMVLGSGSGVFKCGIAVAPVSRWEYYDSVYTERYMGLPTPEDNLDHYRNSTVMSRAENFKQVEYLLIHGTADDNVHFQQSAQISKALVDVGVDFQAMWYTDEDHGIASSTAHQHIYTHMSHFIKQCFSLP
# [3] = Elimination half life in human; details: in vivo
# [4] = biological target: T2, Dipeptidyl peptidase 4; test: Inhibition of DPP4 (unknown origin)
# Target sequence in this assay (P27487 whole entry, looked up): as the sequence (P27487 whole entry) above
# [5] = biological target: T2, Dipeptidyl peptidase 4; test: Inhibition of recombinant human DPP4 using H-Gly-Pro-AMC as substrate preincubated for 15 mins followed by substrate addition measured for 20 mins with 1 min interval
# Target sequence in this assay (P27487 whole entry): as above
# [6] = biological target: T1, Dipeptidyl peptidase 4; test: Inhibition of porcine DPP4 after 30 mins by luminescence assay
# [7] = biological target: T2, Dipeptidyl peptidase 4; test: Inhibition of recombinant human DPP4 using Gly-Pro-AMC as substrate after 30 mins by fluorescence assay
# Target sequence in this assay (P27487 whole entry): as above
# [8] = biological target: T2, Dipeptidyl peptidase 4; test: Inhibition of recombinant human DPP4 using Gly-Pro-AMC as substrate after 1 hr by fluorescence assay
# Target sequence in this assay (P27487 whole entry): as above
# [9] = biological target: T2, Dipeptidyl peptidase 4; test: Inhibition of recombinant human DPP4 expressed in baculovirus expression system using Ala-Pro-AMC as substrate by fluorometric analysis
# Target sequence in this assay (P27487 whole entry): as above
# [10] = biological target: T2, Dipeptidyl peptidase 4; test: Inhibition of recombinant human DPP4 pre-incubated for 30 mins before Gly-Pro-Aminomethylcoumarin substrate addition
# Target sequence in this assay (P27487 whole entry): as above
# [11] = biological target: T2, Dipeptidyl peptidase 4; test: Inhibition of DPP4 (unknown origin) using Gly-Pro-pNA as substrate after 60 mins
# [12] = biological target: T2, Dipeptidyl peptidase 4; test: Inhibition of recombinant human DPP4 using H-Gly-Pro-AMC as substrate after 30 mins by fluorometric analysis
# T1 sequence (P22411 whole entry): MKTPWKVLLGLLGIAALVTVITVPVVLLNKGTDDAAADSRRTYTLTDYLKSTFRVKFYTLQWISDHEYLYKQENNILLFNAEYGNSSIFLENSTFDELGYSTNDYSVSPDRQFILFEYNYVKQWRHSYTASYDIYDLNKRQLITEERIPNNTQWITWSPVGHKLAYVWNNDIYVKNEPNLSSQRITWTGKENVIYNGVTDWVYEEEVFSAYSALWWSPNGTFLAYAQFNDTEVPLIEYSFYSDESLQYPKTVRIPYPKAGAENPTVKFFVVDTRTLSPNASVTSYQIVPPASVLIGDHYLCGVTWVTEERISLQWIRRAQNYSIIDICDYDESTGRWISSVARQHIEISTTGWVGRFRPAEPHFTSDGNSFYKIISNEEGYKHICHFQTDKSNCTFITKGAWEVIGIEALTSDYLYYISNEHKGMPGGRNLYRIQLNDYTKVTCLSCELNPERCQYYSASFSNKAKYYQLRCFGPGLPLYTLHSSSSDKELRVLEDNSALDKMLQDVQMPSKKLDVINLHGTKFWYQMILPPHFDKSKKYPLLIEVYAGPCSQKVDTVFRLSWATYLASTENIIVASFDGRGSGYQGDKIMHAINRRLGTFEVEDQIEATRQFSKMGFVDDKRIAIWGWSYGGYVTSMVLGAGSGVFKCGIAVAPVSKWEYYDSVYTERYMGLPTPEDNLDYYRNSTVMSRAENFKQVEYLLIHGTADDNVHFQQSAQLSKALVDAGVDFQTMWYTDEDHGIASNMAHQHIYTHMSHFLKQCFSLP
compound,measurement,setting,value
H-MAGVDHI-OH,IC50,[1],43000 to 159000 nM
COc1ccc([C@@H]2CC(=O)c3c(O)cc(O)cc3O2)cc1O [HESPERETIN],IC50,[2],280 nM
O=c1c(-c2ccc(O)cc2)coc2cc(O)cc(O)c12 [GENISTEIN],IC50,[2],480 nM
N[C@@H](CC(=O)N1CCn2c(nnc2C(F)(F)F)C1)Cc1cc(F)c(F)cc1F [SITAGLIPTIN],half-life,[3],8 to 24 h
O=c1cc(-c2ccc(O)c(O)c2)oc2cc(O)cc(O)c12 [LUTEOLIN],IC50,[2],120 nM
CC(C)(C)OC[C@@H]1C(=O)NCCN1C(=O)C[C@H](N)Cc1cc(F)c(F)cc1F [EVOGLIPTIN],half-life,[3],32.5 to 39.8 h
CC#CCn1c(N2CCC[C@@H](N)C2)cc(=O)n(Cc2cn(CCC(=O)OC)nn2)c1=O,IC50,[4],64.3 nM
Cc1cc(N2CCN([C@@H]3CN[C@H](C(=O)N4CCSC4)C3)CC2)n(-c2ccccc2)n1 [TENELIGLIPTIN],half-life,[3],26.9 h
O=c1cc(-c2ccc(O)cc2)oc2cc(O)cc(O)c12 [APIGENIN],IC50,[2],140 nM
O=C(N/N=C/c1c(O)ccc2ccccc12)c1n[nH]c2c1CCCC2,IC50,[5],2120 nM
CC[C@H](C)[C@H](N)C(=O)N[C@@H](CC(C)C)C(=O)N[C@@H](C)C(=O)N1CCC[C@H]1C(=O)O (H-ILAP-OH),IC50,[1],43000 to 159000 nM
COc1c(O)cc2oc(-c3ccc(O)cc3)cc(=O)c2c1O [HISPIDULIN],IC50,[6],490 nM
Brc1nc2n(n1)CC(c1cc3ccccc3o1)=NN2,IC50,[7],28000 nM
N[C@@H](CCn1cc(-c2ccncc2)nn1)Cc1cc(F)c(F)cc1F,IC50,[8],14 nM
C[C@@H]1O[C@@H](OC[C@H]2O[C@@H](Oc3cc(O)c4c(c3)O[C@H](c3ccc(O)c(O)c3)CC4=O)[C@H](O)[C@@H](O)[C@@H]2O)[C@H](O)[C@H](O)[C@H]1O [ERIOCITRIN],IC50,[2],10400 nM
O=C(O)c1cc(O)c(O)c(O)c1 [GALLIC ACID],IC50,[2],4650 nM
O=C1C[C@@H](c2ccc(O)cc2)Oc2cc(O)cc(O)c21 [NARINGENIN],IC50,[2],240 nM
O=C(O)/C=C/c1ccc(O)c(O)c1 [CAFFEIC ACID],IC50,[2],3370 nM
N#C[C@@H]1C[C@@H]2C[C@@H]2N1C(=O)[C@@H](N)C12CC3CC(CC(C3)C1)C2,half-life,[3],2 to 4 h
Cn1c(=O)cc(N2CCC[C@@H](N)C2)n(Cc2cc(F)ccc2C#N)c1=O [TRELAGLIPTIN],half-life,[3],38.4 to 54.3 h
Cn1c(=O)cc(N2CCC[C@@H](N)C2)n(Cc2ccccc2C#N)c1=O [ALOGLIPTIN],half-life,[3],21.1 h
COc1cc2oc(-c3ccc(O)cc3)cc(=O)c2c(O)c1OC [CIRSIMARITIN],IC50,[6],430 nM
O=C(N/N=C/c1cccc2ccccc12)c1[nH]nc2c1CCCC2,IC50,[5],3440 nM
Cc1cc(-c2cn([C@@H]3CN[C@H](C(=O)N4CCC(F)(F)C4)C3)nn2)ccc1F,IC50,[9],1320 nM
Oc1cc(O)c2cc(O)c(-c3ccc(O)c(O)c3)[o+]c2c1 [CYANIDIN CHLORIDE],IC50,[2],1410 nM
CC(C)=CCn1c(N2CCCC(N)C2)nc2c1c(=O)n(Cc1ccccc1C#N)c(=O)n2C (centres undefined),IC50,[10],19.6 nM
O=c1cc(-c2ccccc2)oc2ccccc12 [FLAVONE],IC50,[2],170 nM
Oc1ccc(/C=C/c2cc(O)cc(O)c2)cc1 [RESVERATROL],IC50,[2],0.6 nM
O=C(O[C@@H]1Cc2c(O)cc(O)cc2O[C@@H]1c1cc(O)c(O)c(O)c1)c1cc(O)c(O)c(O)c1 [EPIGALOCATECHIN GALLATE],IC50,[2],10200 nM
COc1cc(-c2[o+]c3cc(O)cc(O)c3cc2O)cc(OC)c1O [MALVIDIN CHLORIDE],IC50,[2],1410 nM
O=C1CC(c2ccc(O)cc2)Oc2cc(O)cc(O)c21 (centres undefined),IC50,[6],2500 nM
O=c1c(O)c(-c2ccc(O)cc2)oc2cc(O)cc(O)c12 [KAEMPFEROL],IC50,[2],490 nM
CS(=O)(=O)n1cc2c(n1)CN([C@H]1CO[C@H](c3cc(F)ccc3F)[C@@H](N)C1)C2 [OMARIGLIPTIN],half-life,[3],11 to 22 h
O=C([C@@H]1C[C@H](N2CCN(c3ncccn3)CC2)CN1)N1CCC(F)(F)C1 [GOSOGLIPTIN],half-life,[3],63.5 h
O=C([C@@H]1C[C@H](n2cc(-c3ccccc3)nn2)CN1)N1CCC(F)(F)C1,IC50,[9],660 nM
CC(C)[C@H](N)C(=O)N[C@@H](Cc1c[nH]c2ccccc12)C(=O)O [VALYLTRYPTOPHAN] (H-Val-Trp-OH),IC50,[11],65700 nM
O=c1c(O)c(-c2ccc(O)c(O)c2)oc2cc(O)cc(O)c12 [QUERCETIN],IC50,[2],2920 nM
O=C(CNC(=O)C1CCCN(S(=O)(=O)c2ccccc2)C1)Nc1ccc(Cl)cc1 (centres undefined),IC50,[12],94.8 nM
CC1(C)CCC(=O)N(C[C@@H](N)CC(=O)N2CCc3c(nc(C(F)(F)F)nc3C(F)(F)F)C2)C1,half-life,[3],16.7 to 21.3 h
Cc1cc2ncc(C(=O)NCC(C)(C)NCC(=O)N3CCC[C@H]3C#N)cn2n1 [ANAGLIPTIN],half-life,[3],5.8 to 6.2 h
COC(=O)c1cn([C@@H]2CN[C@H](C(=O)N3CCC(F)(F)C3)C2)nn1,IC50,[9],720 nM
CC(C)C[C@H](NC(=O)[C@@H](N)CC(C)C)C(=O)N[C@@H](C)C(=O)N1CCC[C@H]1C(=O)O (H-LLAP-OH),IC50,[1],43000 to 159000 nM
CC#CCn1c(N2CCC[C@@H](N)C2)nc2c1c(=O)n(Cc1nc(C)c3ccccc3n1)c(=O)n2C [LINAGLIPTIN],half-life,[3],10 to 40 h
OC[C@H]1O[C@@H](Oc2cc3c(O)cc(O)cc3[o+]c2-c2ccc(O)c(O)c2)[C@H](O)[C@@H](O)[C@@H]1O [KUROMANIN],IC50,[2],420 nM
